Measurements: US4221907A, “Substituted O-α-D and O-β-D-multi-galactopyranosyl and glucopyranosyl 1→4 and 1→6 galactopyranosyl 1→6 α-D-glucopyranoses” (American Cyanamid Company, priority 1979, dated 1980)
Counter-ions that a name gives are not always drawn.

Legend:
human C1 = human C1 (Homo sapiens, UniProt P09871); assay: Test Code 026 (C1 inhibitor): activated human C1 destroys fluid phase human C2 in presence of C4; type: biochemical; conditions: activity in wells, twofold serial dilution; higher well number indicates higher activity
Description: (§1) An active inhibitor protects C2 from C1 and C4; (ii) Test Code 035 (C3-C9 inhibitor)--This test determines the ability of the late components of human complement (C3-C9) to lyse EAC 142 in the presence of appropriate dilutions of the test compound. An active inhibitor protects EAC 142 from lysis by human C3-C9; (iii) Test Code 036 (C-Shunt inhibitor)--In this test human erythrocytes rendered fragile are lysed in autologous serum via the shunt pathway activated by cobra venom factor in the presence of appropriate dilutions of the test compound. Inhibition of the shunt pathway results in failure of lysis; (iv) Forssman Vasculitis Test--Here, the well known complement dependent lesion, Forssman vasculitis, is produced in guinea pigs by intradermal injection of rabbit anti-Forssman antiserum. The lesion is measured in terms of diameter, edema and hemorrhage and the extent to which a combined index of these is inhibited by prior intraperitoneal injection of the test compound at 200 mg/kg is then reported, unless otherwise stated; (v) Forssman Shock Test--Lethal shock is produced in guinea pigs by an i.v. injection of anti-Forssman antiserum and the harmonic mean death time of treated guinea pigs is compared with that of the simultaneous controls; (vi) Complement Level Reduction Test--In this test, the above dosed guinea pigs, or others are bled for serum and the complmenet level is determined in undiluted serum by the capillary tube method of U.S. Pat. No. 3,876,376 and compared to undosed control guinea pigs; (vii) Cap 50 Test--Here, appropriate amounts of the test compound are added to a pool of guinea pig serum in vitro, after which the undiluted serum capillary tube assay referred to above is run. The concentration of compound inhibiting 50% is reported.
(§2) **Activity in wells, a serial dilution assay; higher well number indicate
(§3) higher activity. The serial dilutions are twofold-

whole complement = assay: In vivo activity (Guinea Pig): serum whole complement by capillary tube assay after dosing; conditions: Intraperitoneal, 200 mg/kg
shunt pathway = assay: Test Code 036 (C-Shunt inhibitor): lysis of human erythrocytes in autologous serum via shunt pathway activated by cobra venom factor; type: biochemical; conditions: activity in wells, twofold serial dilution; higher well number indicates higher activity
Description: as §1, §2, §3

human complement (C3-C9) = assay: Test Code 035 (C3-C9 inhibitor): lysis of EAC 142 by late components of human complement; type: biochemical; conditions: activity in wells, twofold serial dilution; higher well number indicates higher activity
Description: as §1, §2, §3

Chain of human C1 (P09871 16-688): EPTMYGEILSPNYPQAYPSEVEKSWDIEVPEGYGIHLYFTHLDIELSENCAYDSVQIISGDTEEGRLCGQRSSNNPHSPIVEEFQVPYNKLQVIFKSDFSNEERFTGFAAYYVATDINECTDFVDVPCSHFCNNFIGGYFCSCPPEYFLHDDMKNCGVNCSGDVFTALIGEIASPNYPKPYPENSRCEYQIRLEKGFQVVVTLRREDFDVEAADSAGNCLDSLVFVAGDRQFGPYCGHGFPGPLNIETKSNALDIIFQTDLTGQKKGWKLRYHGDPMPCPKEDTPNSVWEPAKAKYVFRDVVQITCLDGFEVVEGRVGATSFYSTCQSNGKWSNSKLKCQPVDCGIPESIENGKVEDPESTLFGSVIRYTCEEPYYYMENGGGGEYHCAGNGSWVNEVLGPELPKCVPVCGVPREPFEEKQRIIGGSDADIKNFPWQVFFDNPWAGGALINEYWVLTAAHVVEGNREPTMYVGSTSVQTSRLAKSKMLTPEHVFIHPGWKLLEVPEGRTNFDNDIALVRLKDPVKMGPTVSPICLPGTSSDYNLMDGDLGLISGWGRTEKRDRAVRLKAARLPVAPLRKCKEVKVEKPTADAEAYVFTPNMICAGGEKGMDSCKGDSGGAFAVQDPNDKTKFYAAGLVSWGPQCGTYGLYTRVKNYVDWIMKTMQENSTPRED
Chain of human C1 (P00736 18-705 partner): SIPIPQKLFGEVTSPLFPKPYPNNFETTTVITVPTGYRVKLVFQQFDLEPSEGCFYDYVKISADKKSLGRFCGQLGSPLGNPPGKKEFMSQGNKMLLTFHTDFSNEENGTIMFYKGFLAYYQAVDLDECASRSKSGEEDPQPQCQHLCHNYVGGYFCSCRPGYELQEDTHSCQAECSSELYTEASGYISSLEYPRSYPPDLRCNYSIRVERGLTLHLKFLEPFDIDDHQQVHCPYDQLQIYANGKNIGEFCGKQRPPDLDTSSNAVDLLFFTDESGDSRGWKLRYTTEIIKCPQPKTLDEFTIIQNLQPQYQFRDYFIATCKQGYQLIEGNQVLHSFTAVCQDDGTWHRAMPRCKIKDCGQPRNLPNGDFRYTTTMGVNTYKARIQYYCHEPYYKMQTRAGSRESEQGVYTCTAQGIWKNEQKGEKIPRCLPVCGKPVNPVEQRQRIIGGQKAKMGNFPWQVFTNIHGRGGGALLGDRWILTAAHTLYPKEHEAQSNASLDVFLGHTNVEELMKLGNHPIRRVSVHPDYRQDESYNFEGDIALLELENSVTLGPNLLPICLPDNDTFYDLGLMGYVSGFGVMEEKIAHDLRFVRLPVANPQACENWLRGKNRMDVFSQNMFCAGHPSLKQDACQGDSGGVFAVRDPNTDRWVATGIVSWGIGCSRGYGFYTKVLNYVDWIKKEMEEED
Chain of human C1 (P02745 23-245 partner): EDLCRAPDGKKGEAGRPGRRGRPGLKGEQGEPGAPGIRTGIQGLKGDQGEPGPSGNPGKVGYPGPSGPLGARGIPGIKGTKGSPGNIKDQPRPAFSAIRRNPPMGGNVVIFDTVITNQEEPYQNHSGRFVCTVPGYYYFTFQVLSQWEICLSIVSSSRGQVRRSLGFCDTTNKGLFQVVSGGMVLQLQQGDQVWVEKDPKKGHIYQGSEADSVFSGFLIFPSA
Chain of human C1 (P02746 28-253 partner): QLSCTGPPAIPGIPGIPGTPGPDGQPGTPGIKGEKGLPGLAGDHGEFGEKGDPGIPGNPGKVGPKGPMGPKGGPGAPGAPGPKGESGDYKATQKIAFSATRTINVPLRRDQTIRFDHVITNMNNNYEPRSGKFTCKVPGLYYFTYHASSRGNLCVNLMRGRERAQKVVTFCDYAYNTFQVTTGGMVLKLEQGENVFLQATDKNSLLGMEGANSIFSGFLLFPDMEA
Chain of human C1 (P02747 29-245 partner): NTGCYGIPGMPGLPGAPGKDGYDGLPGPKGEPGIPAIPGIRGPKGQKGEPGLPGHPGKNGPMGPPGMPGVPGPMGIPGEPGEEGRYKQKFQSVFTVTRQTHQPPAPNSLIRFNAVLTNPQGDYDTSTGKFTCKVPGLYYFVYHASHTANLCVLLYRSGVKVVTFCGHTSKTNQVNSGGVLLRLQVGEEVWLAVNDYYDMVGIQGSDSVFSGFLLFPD

Row | SMILES | C1 026 Wells (human C1) | In vivo Activity (Guinea Pig) % Inhibition (whole complement; 30 min) [%] | In vivo Activity (Guinea Pig) % Inhibition (whole complement; 60 min) [%] | In vivo Activity (Guinea Pig) % Inhibition (whole complement; 120 min) [%] | Shunt Inhibition 036 Wells (shunt pathway) | C-Late 035 Wells (human complement (C3-C9))
1 | O=S(=O)(O)OC[C@H]1O[C@H](OC[C@H]2O[C@H](OS(=O)(=O)O)[C@H](OS(=O)(=O)O)[C@@H](OS(=O)(=O)O)[C@@H]2OS(=O)(=O)O)[C@H](OS(=O)(=O)O)[C@@H](OS(=O)(=O)O)[C@H]1OS(=O)(=O)O | +8 Wells |  |  |  |  | 
2 | O=S(=O)(O)OC[C@H]1O[C@@H](OC[C@H]2O[C@H](OC[C@H]3O[C@H](OS(=O)(=O)O)[C@H](OS(=O)(=O)O)[C@@H](OS(=O)(=O)O)[C@@H]3OS(=O)(=O)O)[C@H](OS(=O)(=O)O)[C@@H](OS(=O)(=O)O)[C@H]2OS(=O)(=O)O)[C@H](OS(=O)(=O)O)[C@@H](OS(=O)(=O)O)[C@H]1OS(=O)(=O)O [drawing 6, O-β-D-galactopyranosyl(1→6)-O-α-D-galactopyranosyl(1→6)-α-D-glucopyranose [gal 1β,6 gal 1α,6 glc] undecakis (H-sulfate), undecasalt with trimethylamine] | +9 Wells |  |  |  |  | 
3 | O=S(=O)(O)OC[C@H]1O[C@@H](OC[C@H]2O[C@H](OC[C@H]3O[C@H](OS(=O)(=O)O)[C@H](OS(=O)(=O)O)[C@@H](OS(=O)(=O)O)[C@@H]3OS(=O)(=O)O)[C@H](OS(=O)(=O)O)[C@@H](OS(=O)(=O)O)[C@H]2OS(=O)(=O)O)[C@H](OS(=O)(=O)O)[C@@H](OS(=O)(=O)O)[C@H]1OS(=O)(=O)O [drawing 7, O-β-D-galactopyranosyl(1→6)-O-α-D-galactopyranosyl(1→6)-α-D-glucopyranose [gal 1β,6 gal 1α,6 glc] undecakis (H-sulfate), undecasodium salt] | +9 Wells | -30 | -17 | -56 |  | 
4 | O=S(=O)(O)OC[C@H]1O[C@H](OC[C@H]2O[C@@H](OC[C@H]3O[C@H](OC[C@H]4O[C@H](OS(=O)(=O)O)[C@H](OS(=O)(=O)O)[C@@H](OS(=O)(=O)O)[C@@H]4OS(=O)(=O)O)[C@H](OS(=O)(=O)O)[C@@H](OS(=O)(=O)O)[C@H]3OS(=O)(=O)O)[C@H](OS(=O)(=O)O)[C@@H](OS(=O)(=O)O)[C@@H]2OS(=O)(=O)O)[C@H](OS(=O)(=O)O)[C@@H](OS(=O)(=O)O)[C@H]1OS(=O)(=O)O [drawing 8, O-α-D-galactopyranosyl(1→6)-O-β-D-glucopyranosyl(1→6)-O-α-D-galactopyranosyl(1→6)-α-D-glucopyranose [gal 1α,6 glc 1β,6 gal 1α,6 glc] tetradecakis (H-sulfate), tetradecasalt with trimethylamine] | +9 Wells |  |  |  | +5 Wells | +1 Wells
5 | O=S(=O)(O)OC[C@H]1O[C@@H](OC[C@H]2O[C@H](OC[C@H]3OC(OS(=O)(=O)O)[C@H](OS(=O)(=O)O)[C@@H](OS(=O)(=O)O)[C@@H]3OS(=O)(=O)O)[C@H](OS(=O)(=O)O)[C@@H](OS(=O)(=O)O)[C@H]2OS(=O)(=O)O)[C@H](OS(=O)(=O)O)[C@@H](OS(=O)(=O)O)[C@@H]1O[C@H]1O[C@H](COS(=O)(=O)O)[C@@H](OS(=O)(=O)O)[C@H](OS(=O)(=O)O)[C@H]1OS(=O)(=O)O (stereo partly drawn) [drawing 10, O-α-D-glucopyranosyl(1→4)-O-β-D-glucopyranosyl(1→6)-O-α-D-galactopyranosyl(1→6)-D-glucopyranose [glc 1α,4 glc 1β,6 gal 1α,6 glc] tetradecakis (H-sulfate), tetradecasalt with trimethylamine] | +9 Wells |  |  |  | +5 Wells | +1 Wells
6 | O=S(=O)(O)OC[C@H]1O[C@@H](OC[C@H]2O[C@H](OC[C@H]3O[C@H](OS(=O)(=O)O)[C@H](OS(=O)(=O)O)[C@@H](OS(=O)(=O)O)[C@@H]3OS(=O)(=O)O)[C@H](OS(=O)(=O)O)[C@@H](OS(=O)(=O)O)[C@H]2OS(=O)(=O)O)[C@H](OS(=O)(=O)O)[C@@H](OS(=O)(=O)O)[C@@H]1O[C@@H]1O[C@H](COS(=O)(=O)O)[C@@H](OS(=O)(=O)O)[C@H](OS(=O)(=O)O)[C@H]1OS(=O)(=O)O [drawing 12, O-β-D-glucopyranosyl(1→4)-O-β-D-glucopyranosyl(1→6)-O-α-D-galactopyrranosyl(1→6)-α-D-glucopyranose [glc 1β,4 glc 1β,6 gal 1α,6 glc] tetradecakis (H-sulfate), tetradecasalt with trimethylamine] | +9 Wells |  |  |  | +4 Wells | 
7 | O=S(=O)(O)OC[C@H]1O[C@@H](OC[C@H]2O[C@H](OC[C@H]3O[C@H](OS(=O)(=O)O)[C@H](OS(=O)(=O)O)[C@@H](OS(=O)(=O)O)[C@@H]3OS(=O)(=O)O)[C@H](OS(=O)(=O)O)[C@@H](OS(=O)(=O)O)[C@H]2OS(=O)(=O)O)[C@H](OS(=O)(=O)O)[C@@H](OS(=O)(=O)O)[C@@H]1O[C@@H]1O[C@H](COS(=O)(=O)O)[C@@H](OS(=O)(=O)O)[C@H](OS(=O)(=O)O)[C@H]1OS(=O)(=O)O [drawing 13, O-β-D-glucopyranosyl(1→4)-O-β-D-glucopyranosyl(1→6)-O-α-D-galactopyranosyl(1→6)-α-D-glucopyranose [glc 1β,4 glc 1β,6 gal 1α,6 glc] tetradecakis (H-sulfate), tetradecasodium salt] | +9 Wells | -25 | -34 | -60 |  | 
8 | O=S(=O)(O)OC[C@H]1O[C@@H](OC[C@H]2O[C@H](OC[C@H]3O[C@H](OS(=O)(=O)O)[C@H](OS(=O)(=O)O)[C@@H](OS(=O)(=O)O)[C@@H]3OS(=O)(=O)O)[C@H](OS(=O)(=O)O)[C@@H](OS(=O)(=O)O)[C@H]2OS(=O)(=O)O)[C@H](OS(=O)(=O)O)[C@@H](OS(=O)(=O)O)[C@@H]1O[C@H]1O[C@H](COS(=O)(=O)O)[C@@H](O[C@H]2O[C@H](COS(=O)(=O)O)[C@@H](OS(=O)(=O)O)[C@H](OS(=O)(=O)O)[C@H]2OS(=O)(=O)O)[C@H](OS(=O)(=O)O)[C@H]1OS(=O)(=O)O [drawing 14, O-α-D-glucopyranosyl(1→4)-O-α-D-glucopyranosyl(1→4)-O-β-D-glucopyranosyl(1→6)-O-α-D-galactopyranosyl(1→6)-α-D-glucopyranose [(glc 1α,4)2 glc 1β,6 gal 1α,6 glc] heptadecakis(H-sulfate), heptadecasalt with trimethylamine] | +9 Wells |  |  |  |  | +1 Wells
9 | O=S(=O)(O)OC[C@H]1O[C@@H](OC[C@H]2O[C@H](OC[C@H]3O[C@H](OS(=O)(=O)O)[C@H](OS(=O)(=O)O)[C@@H](OS(=O)(=O)O)[C@@H]3OS(=O)(=O)O)[C@H](OS(=O)(=O)O)[C@@H](OS(=O)(=O)O)[C@H]2OS(=O)(=O)O)[C@H](OS(=O)(=O)O)[C@@H](OS(=O)(=O)O)[C@@H]1O[C@H]1O[C@H](COS(=O)(=O)O)[C@@H](O[C@H]2O[C@H](COS(=O)(=O)O)[C@@H](OS(=O)(=O)O)[C@H](OS(=O)(=O)O)[C@H]2OS(=O)(=O)O)[C@H](OS(=O)(=O)O)[C@H]1OS(=O)(=O)O [drawing 15, O-α-D-glucopyranosyl(1→4)-O-α-D-glucopyranosyl(1→4)-O-β-D-glucopyranosyl(1→6)-O-α-D-galactopyranosyl(1→6)-α-D-glucopyranose [(glc 1α,4)2 glc 1β,6 gal 1α,6 glc] heptadecakis(H-sulfate), heptadecasodium salt] | +9 Wells |  |  |  | +6 Wells | +2 Wells
